# Test results reported in patent US4357344A, “Polybutylbenzylphenols and benzyl-3,4-methylenedioxybenzenes in insect population control” (The United States of America as represented by the …, priority 1979, dated 1982).
# Experiments:
# flies (family Muscidae) [1] = test: Chemosterilancy tests (egg hatch and pupal development; Examples 6-9); format: in vivo
# How it was run: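 Compound fed to flies in sugar/milk powder/egg yolk diet, applied in acetone that was then evaporated. 100 laid eggs per cup transferred onto larval rearing medium. Scored as percentage egg hatch and pupal development.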
# Solubility in water = format: physicochemical
# [2] = test system: early fourth-stage larvae of the common malaria mosquito (Anopheles quadrimaculatus); test: Growth-inhibition tests on mosquito larvae; format: in vivo; conditions: in water; corrected by Abbott's formula
# How it was run: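 Fifty early fourth-instar larvae held in 1 L treated water with daily feeding; pupae moved to emergence cages. Dead larvae, pupae and dead, malformed or non-eclosing adults summed, Abbott-corrected as growth inhibition; GI-90 is ppm concentration inhibiting 90% of larvae.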
# flies (family Muscidae) [3] = test: Oviposition inhibition tests (treated fly food; Examples 6-9); format: in vivo
# How it was run: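 Compound mixed via acetone into sugar/dry milk/egg yolk fly food, solvent evaporated. Cages of 100 newly-emerged adults fed treated diet 6-7 days, then given moist CSMA larva-rearing medium for 4-6 h; cups examined for eggs.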
# [4] = test system: Salmonella tester strains TA-100, TA-98, TA-1537; test: Ames' Salmonella/microsome mutagenicity procedure
# Description: The mutagenic activity of D, A, B, M, N, and CC were tested by the standard Ames' Salmonella/microsome procedure, which is reported to show better than 90% correlation with development of mammalian cancers (Ames et al., Mutation Research, Vol. 31, p. 347, 1975; McCann et al., Proc. Nat. Acad. Sci., Vol. 72, p. 5135, 1975). Tester strains TA-100, TA-98, TA-1537 and the plate test method were used, employing concentrations of 10, 100, 1000, and 10,000 […]. The metabolic activation mixture (S-9 mix) used the 9000 times g supernatant of Arochlor-1254-induced rat liver homogenate at a level of 100 μl per ml of S-9 mix.
# screwworm flies = test: Anti-procreant tests on screw-worm fly; format: in vivo
# Description: These tests were conducted on mass-reared screwworm flies which had been obtained as pupae from the screwworm fly plant at Mission, Texas. The flies were held in cages with water and undiluted corn syrup in a colony room maintained at about 27° C. and 60% relative humidity (RH) with a 12-hour photoperiod beginning at 6 a.m. Adults that emerged were lightly anesthetized with CO2 for ease of manipulation the same day.
# The mixtures obtained were fed to the flies in "Dixie" paper cups, 7 cm diameter, and rice hulls were placed on the surface of the food to prevent the flies from getting stuck in the viscous mixture.
# Initially, varying concentrations of a chemosterilant were fed to the flies for the first 5 days of life. Thereafter, the chemosterilant was replaced with pure corn syrup. On the 7th day, 3 replicates of 10 flies were stimulated to oviposit and the flies which oviposited were checked for insemination by an examination of the spermathecae for live sperms. The total number of eggs per fly was estimated and the hatchability of these eggs (fertility) was determined 24 hours later (at 37° C.). Observations were made to determine percentage of egg hatch.
# mice = test: Oral toxicity in mice; conditions: mouse, in vivo, po
# Description: (§1) Compounds D, A, and B were also assayed for oral toxicity in mice.
# Oral toxicity in mice = conditions: mouse, in vivo; oral, mice; read-out: Estimated LD50
# Description: as §1
# [5] = test system: male flies (family Muscidae); test: Sterilization of treated males crossed with virgin untreated females; format: in vivo; conditions: 1.0% in food
# Description: The compound to be tested was administered in a standard fly food containing 6 parts of sugar, 6 parts of powdered non-fat dry milk, and 1 part of powdered egg yolk. Treated food was prepared by mixing an appropriate amount of a solution or suspension of CBCP in acetone with a batch of the food. The acetone was evaporated (4-6 hours) and the dry material was repulverized.
# These flies were maintained on untreated fly food. After 5 days, cups containing the larval-rearing medium was provided as previously described and a 100-egg sample was collected and place on moist larve-rearing medium. About a week after oviposition, examination was made to determine the percentage of hatched eggs and of pupae developed.
smiles,measurement,setting,value
"CC(c1ccccc1)c1cc(C(C)(C)C)cc(C(C)(C)C)c1O (stereo not drawn) [A, 4,6-Di-t-butyl-2-α-methylbenzylphenol]",Egg hatch,flies (family Muscidae) [1]; 0.01% in food,39%
same,Pupal development,flies (family Muscidae) [1]; 0.01% in food,39%
same,Egg hatch,flies (family Muscidae) [1]; 0.025% in food,28%
same,Pupal development,flies (family Muscidae) [1]; 0.025% in food,28%
same,Egg hatch,flies (family Muscidae) [1]; 0.05% in food,0%
same,Pupal development,flies (family Muscidae) [1]; 0.05% in food,0%
same,Egg hatch,flies (family Muscidae) [1]; 0.1% in food,0%
same,Pupal development,flies (family Muscidae) [1]; 0.1% in food,0%
same,Egg hatch,flies (family Muscidae) [1]; 0.25% in food,0%
same,Pupal development,flies (family Muscidae) [1]; 0.25% in food,0%
same,solubility in water,Solubility in water,low solubility in water
same,GI-90 (concentration of growth inhibitor that would prevent and/or retard growth in 90% of the treated larvae),[2],0.039 ppm
same,"Mortality, parent generation",flies (family Muscidae) [3]; 0.01% in food,0%
same,"Mortality, parent generation",flies (family Muscidae) [3]; 0.025% in food,0%
same,"Mortality, parent generation",flies (family Muscidae) [3]; 0.05% in food,0%
same,"Mortality, parent generation",flies (family Muscidae) [3]; 0.1% in food,0%
same,"Mortality, parent generation",flies (family Muscidae) [3]; 0.25% in food,0%
same,mutagenic activity,"[4]; TA-100, TA-98, TA-1537, without or with metabolic activation",non-mutagenic
same,Inhibition of embryogenesis,screwworm flies; 0.01% in food,100%
same,Oviposition,screwworm flies; 0.01% in food,63.3%
same,"Survival, Female",screwworm flies; 0.01% in food,71.3%
same,"Survival, Male",screwworm flies; 0.01% in food,54.0%
same,Inhibition of embryogenesis,screwworm flies; 0.10% in food,100%
same,Oviposition,screwworm flies; 0.10% in food,90.0%
same,"Survival, Female",screwworm flies; 0.10% in food,68.0%
same,"Survival, Male",screwworm flies; 0.10% in food,47.0%
same,oral toxicity (in words),mice,only slightly toxic
same,LD50,Oral toxicity in mice,2510 mg/kg
"CC(C)(C)c1cc(Cc2ccccc2)c(O)c(C(C)(C)C)c1 [D, 2,4-Di-t-butyl-6-benzylphenol]",Egg hatch,flies (family Muscidae) [1]; 0.05% in food,90%
same,Pupal development,flies (family Muscidae) [1]; 0.05% in food,90%
same,Egg hatch,flies (family Muscidae) [1]; 0.1% in food,0%
same,Pupal development,flies (family Muscidae) [1]; 0.1% in food,0%
same,Egg hatch,flies (family Muscidae) [1]; 0.25% in food,0%
same,Pupal development,flies (family Muscidae) [1]; 0.25% in food,0%
same,Egg hatch,flies (family Muscidae) [1]; 0.5% in food,0%
same,Pupal development,flies (family Muscidae) [1]; 0.5% in food,0%
same,Egg hatch,flies (family Muscidae) [1]; 1.0% in food,0%
same,Pupal development,flies (family Muscidae) [1]; 1.0% in food,0%
same,solubility in water,Solubility in water,low solubility in water
same,sterilization of males,[5],100%
same,"Mortality, parent generation",flies (family Muscidae) [3]; 0.05% in food,0%
same,"Mortality, parent generation",flies (family Muscidae) [3]; 0.1% in food,0%
same,"Mortality, parent generation",flies (family Muscidae) [3]; 0.25% in food,0%
same,"Mortality, parent generation",flies (family Muscidae) [3]; 0.5% in food,0%
same,"Mortality, parent generation",flies (family Muscidae) [3]; 1.0% in food,0%
same,revertant frequencies,"[4]; 10-10,000 μg/plate in TA-100 and S-9",exceeded the mean control value plus two or three standard deviations
same,mutagenic response relative to known mutagenic agents which revert this strain,[4]; TA-100 and S-9,extremely weak
same,Inhibition of embryogenesis,screwworm flies; 0.01% in food,95.2%
same,Oviposition,screwworm flies; 0.01% in food,66.7%
same,"Survival, Female",screwworm flies; 0.01% in food,49.3%
same,"Survival, Male",screwworm flies; 0.01% in food,46.0%
same,Inhibition of embryogenesis,screwworm flies; 0.10% in food,100%
same,Oviposition,screwworm flies; 0.10% in food,95.0%
same,"Survival, Female",screwworm flies; 0.10% in food,88.7%
same,"Survival, Male",screwworm flies; 0.10% in food,55.0%
same,oral toxicity (in words),mice,only slightly toxic
same,LD50,Oral toxicity in mice,3430 mg/kg
